Source: patent US12310974B1, “Method of treating post-traumatic stress disorder with carpipramine” (priority 2023, dated 2025)

Columns and labels:
socially isolated mice [1] = test: Forced swim test after social isolation (depressive-like behaviour); format: in vivo; settings: forced swim day 36 vs pre-test day 21, minutes 3 to 6; daily s.c. for 2 weeks: carpipramine 5 mg/kg, paroxetine 1 mg/kg, olanzapine 0.3 mg/kg
Method: The mice were socially isolated for a period of 3 weeks in individual cages, with a 12-hour light/dark cycle. They had access to food and water at libitum. On day 21, a pre-test was performed. Cylindrical tanks were filled with water (approximately 25° C.) to a depth that prevents mice from touching the bottom. Each mouse was placed in a water-filled cylinder for 6 minutes. If the mouse was swimming or struggling after 6 minutes, it was gently submerged, so that it would struggle under the surface for up to 20 seconds. After this time elapsed, the mouse was removed from the container and placed in a transient drying cage with a heat lamp above it and a heat pad under it. The mice were closely and continuously monitored while recovering in this cage. […] The test was performed on day 36. Mice were placed again in water-filled cylinders for 6 minutes, and then moved to a drying cage. The behaviour of mice was coded over the minutes 3 to 6 of each test, in 3 categories: immobile, struggling and swimming. The time associated with each type of behaviour was recorded. A reduction in immobility time is considered predictive of antidepressant properties.

[2] = test system: rats subjected to psychosocial stress; test: Context memory test after predator exposure and housing instability; format: in vivo; settings: daily i.p. 21 days: carpipramine 5, sertraline 5, amitriptyline 2, quetiapine 10 mg/kg, 5 min in chamber
Method: (§1) An experiment was conducted to assess the effects of carpipramine, sertraline, amitriptyline and quetiapine in rates subjected to psychosocial stress (predator exposure and housing instability) against PTSD-like behaviours, based on a protocol adapted from Zoladz et al (2012).
(§2) Adult male Sprague-Dawley rats were used in all experiments. Fifty (50) rats were pair-housed on a 12-h light/dark schedule in cages with free access to food and water.
(§3) Following a 1-week acclimation phase, they were given two 1-h cat exposures, separated by 10 days, in conjunction with daily social stress in the form of randomized housing. During each of the two cat exposures, rats were placed in a perforated wedge-shaped Plexiglas enclosure. The rats, still immobilized within the Plexiglas enclosure, were taken to the cat housing room where they were placed in a metal cage with an adult female cat for 1 hour. The Plexiglas enclosure prevented any physical contact between the cat and rats, but enabled the rats to be exposed to all non-tactile sensory stimuli associated with the cat. The two cat exposures were separated by 10 days, with the first exposure taking place during the light cycle, and the second exposure taking place during the dark cycle. Beginning on the day of the first cat exposure, rats were exposed to unstable housing conditions for the next 31 days. They were housed two rats per cage, with their cohort pair combination changed on a daily basis during the entire 31-day stress period.
(§4) The rats were randomly assigned to 5 groups of 10, treated with carpipramine, sertraline, amitriptyline, quetiapine and saline. The treatments were administered as daily intraperitoneal injections over 21 days, starting from the day following the second cat exposure. Daily doses were as following: • Carpipramine: 5 mg/kg • Sertraline: 5 mg/kg • Amitriptyline: 2 mg/kg • Quetiapine: 10 mg/kg
(§5) Since a major component of PTSD is the persistent memory of a traumatic experience, a method with which to measure a rat's memory for the cat exposure experiences was used. Thus, rats were given a predator-based form of fear conditioning. The rats were placed in a chamber for 3 minutes immediately prior to each of the two cat exposures. The chamber consisted of two aluminium sides, an aluminium ceiling and clear Plexiglas on the front and back walls and speaker on one wall. A 74 dB, 2500 Hz tone was presented during the last 30 seconds of each chamber exposure. Three weeks following the second cat exposure, the rats were tested for their conditioned fear memory by assessing their freezing response (degree of immobility) when they were returned to the chamber and exposed to the tone. […] For the cue memory test, the percentage of immobile time was measured during the last 3 minutes (i.e. during the tone).

[3] = test system: rats subjected to psychosocial stress; test: Cue memory test after predator exposure and housing instability; format: in vivo; settings: daily i.p. 21 days: carpipramine 5, sertraline 5, amitriptyline 2, quetiapine 10 mg/kg, last 3 minutes (tone)
Method: as §1, §2, §3, §4, §5

[4] = test system: rats subjected to psychosocial stress; test: Elevated plus maze (EPM) after predator exposure and housing instability; format: in vivo; settings: daily i.p. 21 days: carpipramine 5, sertraline 5, amitriptyline 2, quetiapine 10 mg/kg, 5 min on EPM
Method: as §1, §2, §3, §4
Twenty-four hours after fear conditioning memory testing, the rats were placed on an elevated plus maze (EPM) for 5 minutes. The EPM is a routine test of anxiety in rodents and consists of two open arms and two closed arms of same size (11 cm by 50 cm) that intersect each other to form the shape of a plus sign. At the beginning of each trial, the rats were placed in the intersection area of the EPM, facing one of the open arms. The primary dependent measures of interest were the amount of time rats spent in the open arms and their overall ambulations.

alpha-1 adrenoreceptors = settings: cited from earlier work
PTSD patients = test: Clinical case reports of patients with PTSD; format: in vivo, human
Text: A person was referred to a psychiatrist by […] general practitioner as they suffered from anxiety, sleep problems and nightmares. […] They were on leave from their position as a teacher. The subject was diagnosed with PTSD and a cognitive behavioural therapy was initiated.
A patient was followed by a psychiatrist due to depression symptoms, including sadness, feeling of hopelessness, apathy and anxiety. […] Fluoxetine was stopped after 6 months. About one year later, the depression symptoms recurred, alongside with auditory hallucinations. The patient was then. […] Three months later, fluoxetine was reintroduced alongside with risperidone. The patient's mood improved, but they still suffered from anxiety and auditory hallucinations. After 6 weeks with the combination of risperidone and fluoxetine, risperidone was replaced by carpipramine (150 mg/day).
A veteran presented to a psychiatrist with major depressive disorder (sadness, irritability, poor concentration, suicidal thoughts). […] New symptoms emerged, including nightmares and anxiety. […] Three months later, the patient relapsed, and was experiencing anxiety symptoms, nightmares and mildly depressed mood. The relapse was treated with carpipramine (initiated at 200 mg/day), which led to remission after 4 weeks of treatment. The patient's condition was stable for about 3 years. The symptoms (anxiety, nightmares, moderately depressed mood) reappeared after that time, together with hallucinations and flashbacks of combat. The diagnostic of PTSD was then established. Carpipramine (200 mg/day) was prescribed again, following the previous experience. The patient entered remission after 3 weeks of treatment.

DA receptors = settings: rat striatum in vitro; order of potency Y-516 > clocapramine > carpipramine; cited from earlier work
socially isolated mice [5] = test: Contextual fear conditioning and extinction (freezing) in socially isolated mice; format: in vivo; settings: for Change in duration of freezing, mean: carpipramine 10 mg/kg s.c., change from day 1
Text: Socially isolated mice express a decrease in corticolimbic allopregnanolone levels that is associated with an enhancement of contextual fear responses and impaired fear extinction. Social isolation can be seen as a prolonged stress that is often associated with a precipitating traumatic event, which leads to maladaptive post-stress adaptations and emergence of PTSD in patients. Thus, social isolation is considered to offer a suitable model to study vulnerability to PTSD.
Ten (10) male Swiss-Webster mice were socially isolated for a period of 4 weeks, in individual cages, according to a protocol proposed by Pinna et al.
Day 0—Training Test. During the training, mice were placed into the training chamber and allowed to explore it for 2 min. After this time, they received a conditioned stimulus (acoustic tone, 30 seconds, 85 dB) co-terminated with an unconditioned stimulus (electric foot shock, 2 s, 0.5 mA). This was repeated three times every 2 min. After the last stimuli, mice were allowed to explore the context for an additional minute before removal from the training chamber (total of 8 min).
Day 1—Contextual Test. Twenty-four hours after training, the mice were placed in the contextual cage, and freezing behavior was measured for 5 min without tone or foot shock presentation. Freezing was defined by the absence of any movement except for those related to respiration while the animal was in a stereotypical crouching posture. Freezing time in a index of fear response.
Days 2-5—Extinction Test. For contextual extinction experiments, mice were placed in the contextual cage for periods of 5 min over 4 consecutive days starting 24 h after the contextual test, and freezing behavior was measured.
After the contextual test, 5 mice received a dose of 10 mg/kg of carpipramine subcutaneously. Injections were repeated on days 2 to 4.

serotonin uptake = settings: studies on metabolic fate and serotonin levels in the brain; cited from earlier work
[6] = Example 5: patient, fluoxetine as initial treatment, risperidone with psychological therapy
[7] = Example 6: veteran, sertraline first, switched to venlafaxine, olanzapine subsequently added

Fc1ccc([C@@H]2CCNC[C@H]2COc2ccc3c(c2)OCO3)cc1 [Paroxetine]
Mean change in immobility time compared to pre-test (socially isolated mice [1]): -82.2 s

CN(C)CCC=C1c2ccccc2CCc2ccccc21 [Amitriptyline]
Context memory % immobility time, mean [2]: 64.5%
Cue memory (during tone) % immobility time, mean [3]: 42.7%
EPM-Open arm exploration % time in open arm, mean [4]: 20.6%

CN(C)C(=O)N[C@H]1CC[C@H](CCN2CCN(c3cccc(Cl)c3Cl)CC2)CC1 [Cariprazine]
affinity for alpha-1 adrenoreceptors (alpha-1 adrenoreceptors): low affinity

Cc1cc2c(s1)Nc1ccccc1N=C2N1CCN(C)CC1 [Olanzapine]
Mean change in immobility time compared to pre-test (socially isolated mice [1]): +19.5 seconds

CNCCC(Oc1ccc(C(F)(F)F)cc1)c1ccccc1 (stereo not drawn) [fluoxetine]
clinical outcome of earlier treatments (PTSD patients; [6]): improvement in most symptoms, but anxiety persisted

CN[C@H]1CC[C@@H](c2ccc(Cl)c(Cl)c2)c2ccccc21 [Sertraline]
Context memory % immobility time, mean [2]: 37.1%
Cue memory (during tone) % immobility time, mean [3]: 25.7%
EPM-Open arm exploration % time in open arm, mean [4]: 32.5%
clinical outcome of earlier treatments (PTSD patients; [7]): no improvement

NC(=O)C1(N2CCCCC2)CCN(CCCN2c3ccccc3CCc3ccc(Cl)cc32)CC1 [clocapramine]
affinity for DA receptors (DA receptors): high affinity

OCCOCCN1CCN(C2=Nc3ccccc3Sc3ccccc32)CC1 [Quetiapine]
Context memory % immobility time, mean [2]: 53.4%
Cue memory (during tone) % immobility time, mean [3]: 39.3%
EPM-Open arm exploration % time in open arm, mean [4]: 28.7%

COc1ccc(C(CN(C)C)C2(O)CCCCC2)cc1 (stereo not drawn) [venlafaxine]
clinical outcome of earlier treatments (PTSD patients; [7]): some improvement, but severe symptoms persisted

NC(=O)C1(N2CCCCC2)CCN(CCCN2c3ccccc3CCc3ccccc32)CC1 [Carpipramine]
mean duration of freezing (socially isolated mice [5]; day 1 contextual test, treated group before first injection (carpipramine 10 mg/kg s.c. given after the test)): 117 s
Change in duration of freezing, mean (socially isolated mice [5]; day 2): -76 s
Change in duration of freezing, mean (socially isolated mice [5]; day 3): -93 s
Change in duration of freezing, mean (socially isolated mice [5]; day 4): -98 s
Change in duration of freezing, mean (socially isolated mice [5]; day 5): -99 s
duration of freezing decreased to (socially isolated mice [5]; treated group after extinction tests, carpipramine 10 mg/kg s.c. day 1 and days 2 to 4, p<0.01 vs control): 18 s
Mean change in immobility time compared to pre-test (socially isolated mice [1]): -104.3 s
Context memory % immobility time, mean [2]: 22.3%
Cue memory (during tone) % immobility time, mean [3]: 14.6%
EPM-Open arm exploration % time in open arm, mean [4]: 42.1%
clinical outcome of PTSD symptoms (PTSD patients; Example 4: person, oral carpipramine 100 mg/daily with cognitive behavioural therapy): All PTSD symptoms improved markedly
clinical outcome (PTSD patients; Example 5: patient, carpipramine 150 mg/day replacing risperidone, alongside fluoxetine): entered in remission two weeks later
time to remission (PTSD patients; Example 6: first relapse, carpipramine initiated at 200 mg/day): 4 weeks
time to remission (PTSD patients; Example 6: recurrence about 3 years later, PTSD diagnosed, carpipramine 200 mg/day): 3 weeks
affinity for DA receptors (DA receptors): high affinity
effect on serotonin uptake (serotonin uptake): did not modify serotonin uptake

Cc1nc2n(c(=O)c1CCN1CCC(c3noc4cc(F)ccc34)CC1)CCCC2 [risperidone]
clinical outcome of earlier treatments (PTSD patients; [6]): modest improvement
